From PubChem BioAssay (NCI)
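In this assay, cells in 96-well plates receive the compound at five concentrations for 48 hours. Endpoints are linearly interpolated between the surrounding concentrations. Definition used: TGI = concentration required for complete inhibition of growth.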

Key:
Experiment in all cases: growth of human tumour cells (NCI), 48 h
HCC-2998 colon = tested on: HCC-2998 colon
HOP-92 NSCLC = tested on: HOP-92 NSCLC
OVCAR-4 ovarian = tested on: OVCAR-4 ovarian
SF-295 CNS = tested on: SF-295 CNS
SK-MEL-5 melanoma = tested on: SK-MEL-5 melanoma
SK-OV-3 ovarian = tested on: SK-OV-3 ovarian
SNB-19 CNS = tested on: SNB-19 CNS
TK-10 renal = tested on: TK-10 renal
UACC-257 melanoma = tested on: UACC-257 melanoma
UACC-62 melanoma = tested on: UACC-62 melanoma

SMILES | TGI (HCC-2998 colon) | TGI (HOP-92 NSCLC) | TGI (OVCAR-4 ovarian) | TGI (SF-295 CNS) | TGI (SK-MEL-5 melanoma) | TGI (SK-OV-3 ovarian) | TGI (SNB-19 CNS) | TGI (TK-10 renal) | TGI (UACC-257 melanoma) | TGI (UACC-62 melanoma)
CN(C)c1ccc(C(=C2C=CC(=[N+](C)C)C=C2)c2c(O)c(S(=O)(=O)[O-])cc3cc(S(=O)(=O)O)ccc23)cc1 | > 100 µM | > 100 µM | > 100 µM | > 100 µM | > 100 µM | > 100 µM | > 100 µM | > 100 µM | > 100 µM | > 100 µM
COc1ccc(/C=C/C=C2C(=O)NC(=S)NC2=O)cc1 | 21.3 µM | 25.4 µM | > 60.7 µM | 29.9 µM | 26.1 µM | 33.2 µM | 20 µM | 7.33 µM | 22 µM | 9.1 µM
COC(=O)/C=C1\C(=O)N(C(C)=O)c2ccccc21 | 31.4 µM | 16.8 µM | 17.5 µM | > 55.2 µM | 27.8 µM | 29.7 µM | > 51.9 µM | 21.7 µM | 22.2 µM | 18.4 µM
CN(CCN(C)Cc1ccc(Cl)c(Cl)c1)CCN1CCCC1 | 32.2 µM | 82.1 µM | > 100 µM | > 88.7 µM | 29.1 µM | > 100 µM | > 100 µM | > 100 µM | 23.9 µM | 7.47 µM
Cc1cc([C@H](C#N)c2nc3ccccc3s2)nc(Cl)n1 | 16.3 µM | 8.76 µM | > 100 µM | > 100 µM | 45.9 µM | 56.5 µM | > 100 µM | 44.1 µM | 22.4 µM | 20.5 µM
COC(CO[Si](C)(C)N[Si](C)(C)OCC(OC)c1ccccc1)c1ccccc1 (stereo not given) | > 100 µM | > 100 µM | > 100 µM | > 100 µM | > 100 µM | > 100 µM | > 100 µM | > 100 µM | > 100 µM | > 100 µM
O=C(OCc1ccccc1[N+](=O)[O-])N1c2ccccc2[C@@]23O[C@]24CCC[C@H]3C#C/C=C\C#C[C@H]14 | > 100 µM | > 100 µM | > 100 µM | > 100 µM | > 100 µM | > 100 µM | > 100 µM | > 100 µM | > 100 µM | > 100 µM
c1ccc2c3c(c(N4CCNCC4)nc2c1)CCCC3 | 4.15 µM | 27.2 µM | 31.5 µM | 45.8 µM | 24.3 µM | 42.7 µM | 29.2 µM | 26.6 µM | 20.6 µM | 30.4 µM
CCCc1c(OC)c(O)c2c(=O)cc(OC)c3c4c(OC)cc(=O)c5c(O)c(OC)c(CCC)c(c1c23)c54 | 34.9 µM | 37.4 µM | 32.7 µM | 31.6 µM | 11.5 µM | 76.5 µM | 16.8 µM | > 100 µM | > 100 µM | 59.9 µM
CCOC(=O)Cn1c(=O)c2cc(C)cc3c(Cl)nc4c(OC)c(OC)cc1c4c32 | > 100 µM | > 100 µM | > 100 µM | > 100 µM | > 100 µM | > 100 µM | > 100 µM | > 100 µM | > 100 µM | > 100 µM
O=c1[nH]c(=O)n(COCCO)cc1-c1ccccc1 | > 100 µM | > 100 µM | > 100 µM | > 100 µM | > 100 µM | > 100 µM | > 100 µM | > 100 µM | > 100 µM | > 100 µM
Cc1ccc(N=c2oc3c(ccc4ccccc43)nc2Nc2ccc(C)cc2)cc1 | > 100 µM | > 100 µM | > 100 µM | > 100 µM | > 100 µM | > 100 µM | > 100 µM | > 100 µM | > 100 µM | > 100 µM
Nc1c2c(nc3ccccc13)-c1ccccc1CCC2 | 12.2 µM | 25.9 µM | 35.6 µM | 19.1 µM | 20.1 µM | 31 µM | 55.4 µM | 25.2 µM | 19.4 µM | 22.7 µM
c1ccc2c(c1)N=c1ccccc1=P21c2ccccc2Nc2ccccc21 | 4.06 µM | 2.32 µM | 19.9 µM | 7.64 µM | 0.42 µM | 5.82 µM | 7.26 µM | 8.12 µM | 2.73 µM | > 100 µM
COC(=O)c1ccc2c(c1)CC1(C2)Cc2ccc3c(c2C1)CCC3 (stereo not given) | > 100 µM | > 100 µM | > 100 µM | 66.4 µM | 33.3 µM | 51.8 µM | > 100 µM | > 100 µM | 53.8 µM | 40.6 µM
CC(C)OCC(O)COc1cc(=O)oc2ccccc12 (stereo not given) | > 100 µM | > 100 µM | > 100 µM | > 100 µM | > 100 µM | > 100 µM | > 100 µM | > 100 µM | > 100 µM | > 100 µM
